ChEMBL document CHEMBL1156506, “Changes to the HIV long terminal repeat and to HIV integrase differentially impact HIV integrase assembly, activity, and the binding of strand transfer inhibitors” (J Biol Chem, 2007)

Assays:
Conditions in all cases: tested as the 3H-labelled form
[1] = tested on: Human immunodeficiency virus; test: Inhibition of HIV wild type integrase assessed as strand transfer activity using U5 GTTC LTR by scintillation proximity assay relative to wild type LTR; design: scale not given: the % may be the effect or the level left
[2] = tested on: Human immunodeficiency virus; test: Binding affinity to HIV wild type integrase using U5 GTCAGT LTR relative to wild type LTR
[3] = tested on: Human immunodeficiency virus type 1 integrase (Human immunodeficiency virus 1), Q7ZJM1 [N155H]; test: Inhibition of HIV recombinant integrase N155H mutant assessed as specific strand transfer activity using U5 GTC LTR by scintillation proximity assay relative to wild type LTR; design: scale not given: the % may be the effect or the level left
[4] = tested on: Human immunodeficiency virus type 1 integrase (Human immunodeficiency virus 1), Q7ZJM1 [N155H]; test: Inhibition of HIV recombinant integrase N155H mutant assessed as specific strand transfer activity using U5 GTdA LTR by scintillation proximity assay relative to wild type LTR; design: scale not given: the % may be the effect or the level left
[5] = tested on: Human immunodeficiency virus; test: Binding affinity to HIV wild type integrase using U5 GTCA LTR relative to wild type LTR
[6] = tested on: Human immunodeficiency virus; test: Inhibition of HIV wild type integrase assessed as strand transfer activity using U5 GTCT LTR by scintillation proximity assay relative to wild type LTR; design: scale not given: the % may be the effect or the level left
[7] = tested on: Human immunodeficiency virus; test: Inhibition of HIV wild type integrase assessed as strand transfer activity using U5 GTCC LTR by scintillation proximity assay relative to wild type LTR; design: scale not given: the % may be the effect or the level left
[8] = tested on: Human immunodeficiency virus; test: Inhibition of HIV wild type integrase assessed as strand transfer activity using U5 GTCAGT LTR by scintillation proximity assay relative to wild type LTR; design: scale not given: the % may be the effect or the level left
[9] = tested on: Human immunodeficiency virus; test: Inhibition of HIV wild type integrase assessed as strand transfer activity using U5 GTGA LTR by scintillation proximity assay relative to wild type LTR; design: scale not given: the % may be the effect or the level left
[10] = tested on: Human immunodeficiency virus; test: Binding affinity to HIV wild type integrase using U5 GTGT LTR relative to wild type LTR
[11] = tested on: Human immunodeficiency virus type 1 integrase (Human immunodeficiency virus 1), Q7ZJM1 [N155H]; test: Inhibition of HIV recombinant integrase N155H mutant assessed as strand transfer activity using U5 TTCA LTR by scintillation proximity assay relative to wild type LTR; design: scale not given: the % may be the effect or the level left
[12] = tested on: Human immunodeficiency virus type 1 integrase (Human immunodeficiency virus 1), Q7ZJM1 [N155H]; test: Inhibition of HIV recombinant integrase N155H mutant assessed as strand transfer activity using U5 INTCA LTR by scintillation proximity assay relative to wild type LTR; design: scale not given: the % may be the effect or the level left
[13] = tested on: Human immunodeficiency virus type 1 integrase (Human immunodeficiency virus 1), Q7ZJM1 [N155H]; test: Inhibition of HIV recombinant integrase N155H mutant assessed as strand transfer activity using U5 ApTCA LTR by scintillation proximity assay relative to wild type LTR; design: scale not given: the % may be the effect or the level left
[14] = tested on: Human immunodeficiency virus type 1 integrase (Human immunodeficiency virus 1), Q7ZJM1 [N155H]; test: Inhibition of HIV recombinant integrase N155H mutant assessed as specific strand transfer activity using U5 GddA LTR by scintillation proximity assay relative to wild type LTR; design: scale not given: the % may be the effect or the level left
[15] = tested on: Human immunodeficiency virus type 1 integrase (Human immunodeficiency virus 1), Q7ZJM1 [Q148R]; test: Inhibition of HIV recombinant integrase Q148R mutant assessed as strand transfer activity using U5 GdCA LTR by scintillation proximity assay relative to wild type LTR; design: scale not given: the % may be the effect or the level left
[16] = tested on: Human immunodeficiency virus type 1 integrase (Human immunodeficiency virus 1), Q7ZJM1 [Q148R]; test: Inhibition of HIV recombinant integrase Q148R mutant assessed as strand transfer activity using U5 TTCA LTR by scintillation proximity assay relative to wild type LTR; design: scale not given: the % may be the effect or the level left
[17] = tested on: Human immunodeficiency virus type 1 integrase (Human immunodeficiency virus 1), Q7ZJM1 [Q148R]; test: Inhibition of HIV recombinant integrase Q148R mutant assessed as strand transfer activity using U5 INTCA LTR by scintillation proximity assay relative to wild type LTR; design: scale not given: the % may be the effect or the level left
[18] = tested on: Human immunodeficiency virus type 1 integrase (Human immunodeficiency virus 1), Q7ZJM1 [Q148R]; test: Inhibition of HIV recombinant integrase Q148R mutant assessed as strand transfer activity using U5 ApTCA LTR by scintillation proximity assay relative to wild type LTR; design: scale not given: the % may be the effect or the level left
[19] = tested on: Human immunodeficiency virus type 1 integrase (Human immunodeficiency virus 1), Q7ZJM1 [Q148R]; test: Binding affinity to HIV recombinant integrase Q148R mutant using U5 INTCA LTR relative to wild type LTR
[20] = tested on: Human immunodeficiency virus; test: Inhibition of HIV wild type integrase assessed as strand transfer activity using U5 GTdA LTR by scintillation proximity assay relative to wild type LTR; design: scale not given: the % may be the effect or the level left
[21] = tested on: Human immunodeficiency virus; test: Inhibition of HIV wild type integrase assessed as strand transfer activity using U5 GdCA LTR by scintillation proximity assay relative to wild type LTR; design: scale not given: the % may be the effect or the level left
[22] = tested on: Human immunodeficiency virus; test: Inhibition of HIV wild type integrase assessed as strand transfer activity using U5 dTCA LTR by scintillation proximity assay relative to wild type LTR; design: scale not given: the % may be the effect or the level left
[23] = tested on: Human immunodeficiency virus; test: Inhibition of HIV wild type integrase assessed as strand transfer activity using U5 INTCA LTR by scintillation proximity assay relative to wild type LTR; design: scale not given: the % may be the effect or the level left
[24] = tested on: Human immunodeficiency virus; test: Inhibition of HIV wild type integrase assessed as strand transfer activity using U5 GTTA LTR by scintillation proximity assay relative to wild type LTR relative to wild type LTR; design: scale not given: the % may be the effect or the level left
[25] = tested on: Human immunodeficiency virus; test: Binding affinity to HIV wild type integrase using U5 GdCA LTR relative to wild type LTR
[26] = tested on: Human immunodeficiency virus; test: Binding affinity to HIV wild type integrase using U5 dTCA LTR relative to wild type LTR
[27] = tested on: Human immunodeficiency virus; test: Inhibition of HIV wild type integrase assessed as strand transfer activity using U5 GInCA LTR by scintillation proximity assay relative to wild type LTR; design: scale not given: the % may be the effect or the level left
[28] = tested on: Human immunodeficiency virus; test: Binding affinity to HIV wild type integrase using U5 INTCA LTR relative to wild type LTR
[29] = tested on: Human immunodeficiency virus; test: Binding affinity to HIV wild type integrase using U5 GddA LTR relative to wild type LTR
[30] = tested on: Human immunodeficiency virus; test: Binding affinity to HIV wild type integrase using U5 GTTA LTR relative to wild type LTR
[31] = tested on: Human immunodeficiency virus; test: Inhibition of HIV wild type integrase assessed as strand transfer activity using U5 GTAG LTR by scintillation proximity assay relative to wild type LTR; design: scale not given: the % may be the effect or the level left
[32] = tested on: Human immunodeficiency virus; test: Binding affinity to HIV wild type integrase using U5 GTAG LTR relative to wild type LTR
[33] = tested on: Human immunodeficiency virus; test: Binding affinity to HIV wild type integrase using U5 GGCA LTR relative to wild type LTR
[34] = tested on: Human immunodeficiency virus; test: Inhibition of HIV wild type integrase assessed as strand transfer activity using U5 ATCA LTR by scintillation proximity assay relative to wild type LTR; design: scale not given: the % may be the effect or the level left
[35] = tested on: Human immunodeficiency virus; test: Binding affinity to HIV wild type integrase using U5 ATCA LTR relative to wild type LTR
[36] = tested on: Human immunodeficiency virus; test: Inhibition of HIV wild type integrase assessed as strand transfer activity U5 CTCA LTR by scintillation proximity assay relative to wild type LTR; design: scale not given: the % may be the effect or the level left
[37] = tested on: Human immunodeficiency virus; test: Inhibition of HIV wild type integrase assessed as specific strand transfer activity using U5 GTC LTR by scintillation proximity assay relative to wild type LTR; design: scale not given: the % may be the effect or the level left
[38] = tested on: Human immunodeficiency virus; test: Inhibition of HIV wild type integrase assessed as specific strand transfer activity using U5 GdCA LTR by scintillation proximity assay relative to wild type LTR; design: scale not given: the % may be the effect or the level left
[39] = tested on: Human immunodeficiency virus; test: Inhibition of HIV wild type integrase assessed as specific strand transfer activity using U5 dTCA LTR by scintillation proximity assay relative to wild type LTR; design: scale not given: the % may be the effect or the level left
[40] = tested on: Human immunodeficiency virus; test: Inhibition of HIV wild type integrase assessed as specific strand transfer activity using U5 GddA LTR by scintillation proximity assay relative to wild type LTR; design: scale not given: the % may be the effect or the level left
[41] = tested on: Human immunodeficiency virus; test: Inhibition of HIV wild type integrase assessed as specific strand transfer activity using U5 GTTA LTR by scintillation proximity assay relative to wild type LTR; design: scale not given: the % may be the effect or the level left
[42] = tested on: Human immunodeficiency virus type 1 integrase (Human immunodeficiency virus 1), Q7ZJM1 [N155H]; test: Inhibition of HIV recombinant integrase N155H mutant assessed as strand transfer activity using U5 GdCA LTR by scintillation proximity assay relative to wild type LTR; design: scale not given: the % may be the effect or the level left
[43] = tested on: Human immunodeficiency virus type 1 integrase (Human immunodeficiency virus 1), Q7ZJM1 [N155H]; test: Inhibition of HIV recombinant integrase N155H mutant assessed as strand transfer activity using U5 dTCA LTR by scintillation proximity assay relative to wild type LTR; design: scale not given: the % may be the effect or the level left

Cn1c(N2CCCCS2(=O)=O)nc(C(=O)NCc2ccc(F)cc2)c(O)c1=O [BMS-707035]
Activity [1]: 25%
Activity [2]: 75%
Activity [3]: 107%
Activity [4]: 35%
Activity [5]: 75%
Activity [6]: 75%
Activity [7]: 75%
Activity [8]: 75%
Activity [9]: 90%
Activity [10]: 25%
Activity [11]: 4%
Activity [12]: 23%
Activity [13]: 2%
Activity [14]: 3%
Activity [15]: 0.6%
Activity [16]: 4%
Activity [17]: 0.6%
Activity [18]: 0.4%
Activity [19]: 2%
Activity [20]: 32%
Activity [21]: 70%
Activity [22]: 10%
Activity [23]: 45%
Activity [24]: 86%
Activity [25]: 40%
Activity [26]: 15%
Activity [27]: 70%
Activity [28]: 62%
Activity [29]: 35%
Activity [30]: 51%
Activity [31]: < 25%
Activity [32]: < 25%
Activity [33]: < 25%
Activity [34]: 75%
Activity [35]: < 25%
Activity [36]: 40%
Activity [37]: 100%
Activity [38]: 103%
Activity [39]: 67%
Activity [40]: 3%
Activity [41]: 143%
Activity [42]: 33%
Activity [43]: 2%
